By IC50 is commonly meant the point on the concentration scale where inhibition reaches its midpoint. One may read the solubility as how much of the substance goes into solution per volume. A lower solubility goes with little dissolved substance.

The test system of series [1] is P. aeruginosa pyocyanin production. Nature of the series: Pyocyanin assay. Type of series: cell-based. The following applies: Pseudomonas aeruginosa, PA14, 16 h, read-out: IC50-value towards pyocyanin production, PA14 in PPGAS medium, 16 h. As to the method:
Inhibition of P. aeruginosa pyocyanin production by compounds was determined photometrically as described before. In short, an overnight culture of PA14 in PPGAS medium was washed, diluted in medium to a start OD600 of 0.02, and incubated for 16 h (37° C., 200 rpm, relative humidity 75%) in the presence of test compounds. Then, cultures were extracted with chloroform and re-extracted with 0.2 M HCl. Protonated red colored pyocyanin was determined by measuring OD520 and normalizing to OD600.

A short description of series [2]: Kinetic Turbidimetric Aqueous Solubility. Type of series: physicochemical. The following applies: aqueous buffer, kinetic from dmso stock, PBS buffer, room temperature. As to the method: Kinetic Turbidimetric Aqueous Solubility at room temperature for 5 min. Test compound was diluted in PBS buffer to give a range of concentrations (typically 0.4, 2, 4, 20, 40, 100, and 200 μM, final DMSO concentration 2%) and incubated at room temperature for 5 min. Absorbance was measured at a wavelength of 620 nm and the solubility was estimated from the concentration of test compound that produces an increase in absorbance above the vehicle control (i.e., […]). Data was analyzed by fitting a four parameter sigmoidal function to the measured and normalized absorbances and AUC calculation providing access to Log S (decadic logarithm of the solubility).

Series [3] is described as follows: Metabolic stability in mouse liver microsomes (MLM). Type of series: in vitro ADME. The following applies: 1 μM compound, 0.5 mg/mL MLM, 1 mM NADPH, 37° C., read-out: half-life (t1/2) towards MLM. The procedure: For the evaluation of phase I metabolic stability, the compound (1 μM) was incubated with 0.5 mg/mL MLM (Corning) and 1 mM NADPH at 37° C. for 0, 5, 10, 15 and 30 min. The metabolic stability of Verapamil, Diphenhydramine and Benzydamine (1 μM each) were determined in parallel to confirm the enzymatic activity of the MLM. The incubation was stopped by addition of 2 volumes of acetonitrile containing internal standard (1 μM Leucine Enkephaline). Samples were centrifuged (15 min, 3,500 rpm). Concentration of the remaining test compound at the different time points was analyzed by HPLC-MS/MS and used to determine half-life (t1/2).
In general terms: Microsomes from liver hold many membrane-bound enzymes, among them those of drug oxidation.

For series [4], the target named is T1, PqsR (Pseudomonas aeruginosa, UniProt Q9I4X0).
T1 construct: expressed in transfected cells; host or cells: Escherichia coli DH5a carrying pEAL08-2
Put plainly: PqsR inverse agonistic activity, reporter gene assay in E. coli. Type of series: cell-based. As to the method:
Inhibition of pqsR-dependent gene expression of test compounds was determined in an E. coli based-galactosidase reporter gene assay. Escherichia coli DH5a was transfected with pEAL08-2 plasmid encoding pqsR under control of promoter tac and β-galactosidase reporter gene lacZ under control of promoter pqsA. Antagonistic effects of compounds were evaluated in the presence of/in competition to 50 nM PQS. A positive control was used to ensure the reliability of individual assays. First, PQS was diluted in methanol and added to the wells of a glass coated 96-deep-well plate, and the solvent was evaporated. Then, compounds were added in 5 μL DMSO to final concentrations of 0.001-10 μM. Overnight cultures of E. coli DH5a×pEAL08-2 were diluted 1:100 in LB medium with ampicillin (50 μg/ml) and incubated at 37° C. with shaking until it reached an OD600 of 0.2. Finally, 995 μL of culture was added to each well and the β-galactosidase activity was determined by ortho-nitrophenyl-β-galactoside conversion in permeabilized cells after a 2.5 h incubation period (37° C., 180 rpm). OD600, OD420, and OD550 were measured using POLARstar Omega (BMG Labtech, Ortenberg, Germany), and the activity was expressed as ratio of the slope of B-galactosidase activity between basal control (no PQS) and solvent control. IC50 values of antagonists were determined by variation of the concentration of the test compounds.
Background: Reporter assays use an easily measured gene product as a stand-in for the process of interest.

The subject of series [5] is signal molecule production (HHQ, PQS). To be noted: at 15 μM; cited from earlier work.
The test system of series [6] is virulence factor pyocyanin production. The following applies: in cellulo; read-out: inhibition of virulence factor pyocyanin production IC50; cited from earlier work.
Series [7] relates to production of signal molecules HHQ and PQS. The following applies: QS inhibitors targeting PqsA; read-out: IC50, reduction of production of signal molecules HHQ and PQS; cited from earlier work.

T1 sequence (Q9I4X0 whole entry): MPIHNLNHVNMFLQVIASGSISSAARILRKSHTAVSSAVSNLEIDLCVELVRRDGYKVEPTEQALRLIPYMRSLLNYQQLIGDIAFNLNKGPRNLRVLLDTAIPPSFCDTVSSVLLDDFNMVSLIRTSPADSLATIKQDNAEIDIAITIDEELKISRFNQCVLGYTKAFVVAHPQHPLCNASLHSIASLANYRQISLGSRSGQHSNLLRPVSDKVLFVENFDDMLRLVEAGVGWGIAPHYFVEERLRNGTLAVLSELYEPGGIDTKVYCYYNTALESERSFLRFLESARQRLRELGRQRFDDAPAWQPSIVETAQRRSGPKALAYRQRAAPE

Take `O=[N+]([O-])c1cc(-c2ncc(CNc3cc(Cl)nc(C(F)(F)F)c3)cn2)ccc1Cl` [Compound 08]: the IC50 in series [1] lay within 101 to 200 nM. For the same molecule, the solubility at 5 min in series [2] is more than 10 µM. In addition, in series [3], the half-life at 1 μM is more than 1 h.
For the molecule `Fc1ccc(Nc2ccc3[nH]c(CSc4ccnc(C(F)(F)F)c4)nc3c2)c(F)c1` [Compound 45], the figures for the 50% inhibitory concentration (IC50) in series [4] and in series [1] were not above 50 nM and 101 to 200 nM, respectively. The molecule further yielded a solubility at 5 min in series [2] of more than 25 µM. In series [3], the half-life at 1 μM was more than 1 h.
On to `CCCCCCCc1[nH]c2ccc([N+](=O)[O-])cc2c(=O)c1C(N)=O` [2-heptyl-6-nitro-4-oxo-1,4-dihydroquinoline-3-carboxamide], for which, in series [5], the “reduction of HHQ production” value is listed as 54% and the “reduction of PQS production” value was 37%. In addition, in series [6], the IC50 is 2000 nM.
The molecule `NC(=O)c1cccc(Nc2ccc3[nH]c(CSc4ccnc(C(F)(F)F)c4)nc3c2)c1` [Compound 36] registered an IC50 in series [4] of 251 to 1000 nM. This molecule returned a solubility at 5 min in series [2] of more than 50 µM. The half-life at 1 μM in series [3] fell in the range of 0.517 to 1 h.
`FC(F)c1cccc(Nc2ccc3[nH]c(CSc4ccnc(C(F)(F)F)c4)nc3c2)c1` [Compound 37]: the IC50 is not above 50 nM in series [4] and 101 to 200 nM in series [1]. In series [2], the solubility at 5 min was more than 10 µM. In addition, the half-life at 1 μM in series [3] was more than 1 h.
For `Fc1ccc(Nc2cccc(-n3cc(CNc4ccnc(C(F)(F)F)c4)nn3)c2)cc1` [Compound 05], the half-inhibitory concentration (IC50) in series [4] was not above 50 nM; in series [1], 201 to 500 nM. The same molecule yielded a solubility at 5 min in series [2] of more than 25 µM.
Regarding `FC(F)(F)c1cc(NCc2cn(-c3cccc(Nc4ccccc4)c3)nn2)ccn1` [Compound 02], the 50% inhibitory concentration (IC50) in series [4] was not above 50 nM; in series [1], not above 100 nM. This molecule came in with a solubility at 5 min in series [2] of more than 10 µM.
As to `O=[N+]([O-])c1cccc(-c2ncc(CNc3cc(Cl)nc(C(F)(F)F)c3)cn2)c1` [Compound 09], the half-maximal inhibitory concentration (IC50) in series [1] was in the range of 201 to 500 nM. This molecule also returned a solubility at 5 min in series [2] of more than 10 µM. In addition, the half-life at 1 μM in series [3] was 0.517 to 1 h.
On to `Fc1ccccc1Nc1ccc(-n2cc(CNc3ccnc(C(F)(F)F)c3)nn2)cc1` [Compound 01], for which the IC50 is not above 50 nM in series [4] and 201 to 500 nM in series [1]. Besides, the solubility at 5 min in series [2] was more than 50 µM.
Regarding `Fc1cc(Nc2ccccc2)cc2nc(CSc3ccnc(C(F)(F)F)c3)[nH]c12` [Compound 56], the 50% inhibitory concentration (IC50) in series [4] is not above 50 nM; in series [1] it was not above 100 nM. The molecule also showed a solubility at 5 min in series [2] of more than 25 µM.
As to `Nc1cc(SCc2nc3cc(Nc4ccccc4)ccc3[nH]2)nc(C(F)(F)F)n1` [Compound 14], the IC50 was not above 50 nM in series [4] and 101 to 200 nM in series [1]. The same molecule had a solubility at 5 min in series [2] of more than 25 µM.
Consider `Nc1cccc(F)c1C(=O)O` [Compound 6FABA], for which the 50% inhibitory concentration (IC50) in series [7] is approximately 100000 nM.

The values are drawn from patent US12528783B2, “PqsR inverse agonists” (priority 2020, dated 2026).
